Reference: patent publication US9580390B2, “Indazole compounds as kinase inhibitors and method of treating cancer with same” (University Health Network, priority 2011, dated 2017)
Where two headings read alike, the source gives them in different places.

What was measured:
[1] = tested on: TICs (Colon 12); assay: Colon tumor-initiating cell growth inhibition (Alamar Blue); assay type: cell-based; conditions: 216 h; Colon 12 TICs, 9 days; read-out: Tumor Initiating Cell GI50 Range Colon 12
[2] = tested on: ovarian cancer cells (PA-1); assay: Cancer cell line growth inhibition (SRB assay); assay type: cell-based; conditions: Homo sapiens, PA-1; read-out: Cancer Cell Line GI50 Range PA-1
[3] = target: T1, human TTK (Homo sapiens, UniProt P33981); assay: TTK inhibition assay (indirect ELISA); assay type: biochemical
T1 construct: amino terminal GST fusion of full length human TTK; purchased Invitrogen
T1 sequence (P33981 1-857): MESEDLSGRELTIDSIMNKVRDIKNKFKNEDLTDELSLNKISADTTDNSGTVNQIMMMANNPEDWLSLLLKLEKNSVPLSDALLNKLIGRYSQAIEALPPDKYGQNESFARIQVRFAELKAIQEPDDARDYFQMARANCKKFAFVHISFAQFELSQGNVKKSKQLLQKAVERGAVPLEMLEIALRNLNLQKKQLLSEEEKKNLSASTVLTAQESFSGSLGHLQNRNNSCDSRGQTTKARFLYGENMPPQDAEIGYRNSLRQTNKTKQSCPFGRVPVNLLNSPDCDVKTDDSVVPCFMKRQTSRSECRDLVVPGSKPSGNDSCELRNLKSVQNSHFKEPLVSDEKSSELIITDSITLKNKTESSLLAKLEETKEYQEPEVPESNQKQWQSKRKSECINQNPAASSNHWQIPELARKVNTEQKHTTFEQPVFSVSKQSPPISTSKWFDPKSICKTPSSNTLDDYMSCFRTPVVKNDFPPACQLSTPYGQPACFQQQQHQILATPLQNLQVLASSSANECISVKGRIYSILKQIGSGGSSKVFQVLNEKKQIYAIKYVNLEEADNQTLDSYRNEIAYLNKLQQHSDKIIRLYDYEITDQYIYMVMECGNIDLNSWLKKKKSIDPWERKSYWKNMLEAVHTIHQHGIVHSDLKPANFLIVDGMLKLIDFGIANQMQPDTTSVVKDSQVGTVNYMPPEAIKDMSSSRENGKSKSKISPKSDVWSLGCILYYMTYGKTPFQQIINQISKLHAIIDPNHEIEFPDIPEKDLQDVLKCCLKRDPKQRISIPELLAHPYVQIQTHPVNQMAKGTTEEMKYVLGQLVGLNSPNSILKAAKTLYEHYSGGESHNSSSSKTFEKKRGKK

[4] = tested on: colon cancer cells (HCT116); assay: Cancer cell line growth inhibition (SRB assay); assay type: cell-based; conditions: Homo sapiens, HCT-116; read-out: Cancer Cell Line GI50 Range HCT116
[5] = tested on: TICs (Ovarian 2393A); assay: Ovarian tumor-initiating cell growth inhibition (Alamar Blue); assay type: cell-based; conditions: 144 h; Ovarian 2393A TICs, 6 days; read-out: Tumor Initiating Cell GI50 Range Ovarain 2393A
[6] = target: T2, human PLK4 (Homo sapiens, UniProt O00444); assay: PLK4 inhibition assay (indirect ELISA); assay type: biochemical; conditions: 15 μM ATP
T2 construct: amino terminal GST fusion of residues 1-391 of human PLK4; made in house; host or cells: E. coli
T2 sequence (O00444 1-391): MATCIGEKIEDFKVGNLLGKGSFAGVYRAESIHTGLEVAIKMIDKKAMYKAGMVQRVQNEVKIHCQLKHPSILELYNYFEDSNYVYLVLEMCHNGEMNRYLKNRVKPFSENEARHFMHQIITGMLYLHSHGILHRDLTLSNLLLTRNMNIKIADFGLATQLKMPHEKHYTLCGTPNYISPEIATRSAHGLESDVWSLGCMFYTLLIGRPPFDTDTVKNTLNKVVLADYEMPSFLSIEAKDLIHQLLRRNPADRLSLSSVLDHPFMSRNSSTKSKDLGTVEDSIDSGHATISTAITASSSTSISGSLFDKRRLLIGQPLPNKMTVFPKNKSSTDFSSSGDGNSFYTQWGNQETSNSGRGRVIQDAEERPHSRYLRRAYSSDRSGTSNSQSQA
Method in brief: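 Dephosphorylated GST-PLK4 (residues 1-391, E. coli; 4 nM) was preincubated 15 min with compound, then reacted 30 min with 15 μM ATP in HEPES pH 7.4, MgCl2, Brij 35 on MBP-coated plates. Phospho-MBP was detected by antibody/HRP ELISA at 450 nm; IC50 from 10-point titration by 4-parameter logistic fit, or single 10 μM % inhibition.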

[7] = tested on: Breast cancer cells; assay: Cancer cell line growth inhibition (SRB assay); assay type: cell-based; conditions: Homo sapiens; MDA-MB-468; read-out: Cancer Cell Line GI50 Range MDA-MB-468
[8] = target: T3, JNK3 (Homo sapiens, UniProt P53779); assay: Panel of 270 human kinases (Millipore); assay type: biochemical
T3 construct: purchased Millipore Corporation
Protocol: (§1) The inhibitory activity of selected compounds of the invention (A335, A405, A410, A261, A300 and A363) was evaluated against a panel of 270 different human kinase enzymes by Millipore Corporation. The % Inhibition was determined by the formula: % Inhibition=100×(1−(experimental value−background value)/(high activity control−background value)).

[9] = target: T4, Aurora-B (Homo sapiens, UniProt Q96GD4); assay: Panel of 270 human kinases (Millipore); assay type: biochemical
T4 construct: purchased Millipore Corporation
Protocol: as §1

[10] = target: T5, ALK (Homo sapiens, UniProt Q9UM73); assay: Panel of 270 human kinases (Millipore); assay type: biochemical
T5 construct: purchased Millipore Corporation
Protocol: as §1

[11] = target: T6, MELK (Homo sapiens, UniProt Q14680); assay: Panel of 270 human kinases (Millipore); assay type: biochemical
T6 construct: purchased Millipore Corporation
Protocol: as §1

[12] = target: T7, cKit (V560G) (Homo sapiens, UniProt P10721, V560G); assay: Panel of 270 human kinases (Millipore); assay type: biochemical
T7 construct: purchased Millipore Corporation
Protocol: as §1

[13] = target: T8, Met(Y1248C) (Homo sapiens, UniProt P08581, Y1230C); assay: Panel of 270 human kinases (Millipore); assay type: biochemical
T8 construct: purchased Millipore Corporation
Protocol: as §1

[14] = target: T9, MAPK2 (Homo sapiens, UniProt P28482); assay: Panel of 270 human kinases (Millipore); assay type: biochemical
T9 construct: purchased Millipore Corporation
Protocol: as §1

[15] = target: T10, MUSK (Homo sapiens, UniProt O15146); assay: Panel of 270 human kinases (Millipore); assay type: biochemical
T10 construct: purchased Millipore Corporation
T10 sequence (O15146 24-869): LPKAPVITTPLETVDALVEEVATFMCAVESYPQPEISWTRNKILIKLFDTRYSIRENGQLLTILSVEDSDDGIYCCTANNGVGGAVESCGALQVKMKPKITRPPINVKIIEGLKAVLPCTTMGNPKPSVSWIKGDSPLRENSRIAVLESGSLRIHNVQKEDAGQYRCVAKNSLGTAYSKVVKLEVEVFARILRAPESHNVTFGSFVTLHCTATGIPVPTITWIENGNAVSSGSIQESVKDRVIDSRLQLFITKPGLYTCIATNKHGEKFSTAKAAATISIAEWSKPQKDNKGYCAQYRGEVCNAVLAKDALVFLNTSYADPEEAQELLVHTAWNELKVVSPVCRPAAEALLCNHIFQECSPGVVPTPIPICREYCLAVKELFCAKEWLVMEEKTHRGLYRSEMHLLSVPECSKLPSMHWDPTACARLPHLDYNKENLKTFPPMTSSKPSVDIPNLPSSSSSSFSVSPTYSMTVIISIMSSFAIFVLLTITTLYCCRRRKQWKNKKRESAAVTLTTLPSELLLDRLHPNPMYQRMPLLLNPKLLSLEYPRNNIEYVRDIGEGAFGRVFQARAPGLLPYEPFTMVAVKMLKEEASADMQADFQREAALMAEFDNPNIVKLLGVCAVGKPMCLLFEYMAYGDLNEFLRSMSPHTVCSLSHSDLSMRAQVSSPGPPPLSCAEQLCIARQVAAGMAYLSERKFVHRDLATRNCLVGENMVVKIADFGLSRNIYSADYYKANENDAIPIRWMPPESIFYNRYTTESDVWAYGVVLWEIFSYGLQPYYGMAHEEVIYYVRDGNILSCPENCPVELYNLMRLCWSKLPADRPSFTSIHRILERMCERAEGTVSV
Protocol: as §1

T3 sequence (P53779 whole entry): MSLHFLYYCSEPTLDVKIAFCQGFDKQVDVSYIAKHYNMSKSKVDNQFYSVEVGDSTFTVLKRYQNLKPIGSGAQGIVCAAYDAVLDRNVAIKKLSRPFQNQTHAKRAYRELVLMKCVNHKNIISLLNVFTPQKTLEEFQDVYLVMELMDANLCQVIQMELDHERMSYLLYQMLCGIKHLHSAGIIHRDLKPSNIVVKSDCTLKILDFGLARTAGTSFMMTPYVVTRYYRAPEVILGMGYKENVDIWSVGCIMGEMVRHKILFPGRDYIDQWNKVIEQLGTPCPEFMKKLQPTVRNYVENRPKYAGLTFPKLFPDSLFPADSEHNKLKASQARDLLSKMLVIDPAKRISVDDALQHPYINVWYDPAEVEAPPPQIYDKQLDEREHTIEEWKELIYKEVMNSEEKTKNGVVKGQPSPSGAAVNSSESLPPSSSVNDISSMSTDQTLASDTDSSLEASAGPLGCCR
T8 sequence (P08581 25-1408 isoform P08581-2 Y1248C limits assumed): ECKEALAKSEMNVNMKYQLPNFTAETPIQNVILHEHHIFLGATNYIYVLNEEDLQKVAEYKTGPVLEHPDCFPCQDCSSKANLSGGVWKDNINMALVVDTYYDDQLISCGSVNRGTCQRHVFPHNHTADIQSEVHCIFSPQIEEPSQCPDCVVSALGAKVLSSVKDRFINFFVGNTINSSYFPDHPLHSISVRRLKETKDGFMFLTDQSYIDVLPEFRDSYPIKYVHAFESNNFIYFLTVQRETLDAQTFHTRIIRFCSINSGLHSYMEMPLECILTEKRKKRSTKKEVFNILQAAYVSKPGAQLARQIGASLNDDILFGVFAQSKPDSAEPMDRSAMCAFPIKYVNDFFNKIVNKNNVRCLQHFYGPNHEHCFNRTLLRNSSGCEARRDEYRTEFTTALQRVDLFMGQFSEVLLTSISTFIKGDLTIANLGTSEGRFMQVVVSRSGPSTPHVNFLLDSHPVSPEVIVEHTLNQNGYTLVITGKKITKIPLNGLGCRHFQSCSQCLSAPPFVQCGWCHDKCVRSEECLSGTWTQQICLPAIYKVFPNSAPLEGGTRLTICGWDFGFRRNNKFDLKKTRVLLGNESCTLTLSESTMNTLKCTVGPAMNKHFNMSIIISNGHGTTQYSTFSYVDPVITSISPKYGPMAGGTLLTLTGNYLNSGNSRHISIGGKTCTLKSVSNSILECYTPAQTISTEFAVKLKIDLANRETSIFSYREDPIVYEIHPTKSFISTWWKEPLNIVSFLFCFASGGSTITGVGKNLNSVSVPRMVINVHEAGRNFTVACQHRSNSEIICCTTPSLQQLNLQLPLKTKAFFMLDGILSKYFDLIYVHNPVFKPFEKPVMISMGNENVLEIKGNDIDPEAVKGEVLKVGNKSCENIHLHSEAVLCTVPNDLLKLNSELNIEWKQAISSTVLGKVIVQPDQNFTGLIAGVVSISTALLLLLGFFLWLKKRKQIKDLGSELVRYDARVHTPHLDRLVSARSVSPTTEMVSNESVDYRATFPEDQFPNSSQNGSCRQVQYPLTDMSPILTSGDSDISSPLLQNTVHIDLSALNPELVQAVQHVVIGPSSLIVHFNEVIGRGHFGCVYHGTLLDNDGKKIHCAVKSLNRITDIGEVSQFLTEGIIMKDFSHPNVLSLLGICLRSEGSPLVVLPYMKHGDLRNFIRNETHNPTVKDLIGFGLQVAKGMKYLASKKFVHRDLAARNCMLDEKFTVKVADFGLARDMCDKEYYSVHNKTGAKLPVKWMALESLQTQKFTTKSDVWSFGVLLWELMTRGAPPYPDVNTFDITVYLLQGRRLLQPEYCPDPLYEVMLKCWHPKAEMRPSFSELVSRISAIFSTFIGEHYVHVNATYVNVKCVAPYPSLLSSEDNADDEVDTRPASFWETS
T9 sequence (P28482 whole entry): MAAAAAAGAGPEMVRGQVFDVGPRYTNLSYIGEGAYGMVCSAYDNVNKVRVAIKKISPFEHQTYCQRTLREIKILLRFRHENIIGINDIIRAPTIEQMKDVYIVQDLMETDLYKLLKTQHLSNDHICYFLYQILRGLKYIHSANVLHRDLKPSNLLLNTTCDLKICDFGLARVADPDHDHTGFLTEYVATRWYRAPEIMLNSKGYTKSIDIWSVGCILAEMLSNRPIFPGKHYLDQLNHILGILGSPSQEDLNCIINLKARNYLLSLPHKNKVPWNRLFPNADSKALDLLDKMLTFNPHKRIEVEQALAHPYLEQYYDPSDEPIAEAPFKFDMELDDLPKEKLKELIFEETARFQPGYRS
T5 sequence (Q9UM73 19-1620): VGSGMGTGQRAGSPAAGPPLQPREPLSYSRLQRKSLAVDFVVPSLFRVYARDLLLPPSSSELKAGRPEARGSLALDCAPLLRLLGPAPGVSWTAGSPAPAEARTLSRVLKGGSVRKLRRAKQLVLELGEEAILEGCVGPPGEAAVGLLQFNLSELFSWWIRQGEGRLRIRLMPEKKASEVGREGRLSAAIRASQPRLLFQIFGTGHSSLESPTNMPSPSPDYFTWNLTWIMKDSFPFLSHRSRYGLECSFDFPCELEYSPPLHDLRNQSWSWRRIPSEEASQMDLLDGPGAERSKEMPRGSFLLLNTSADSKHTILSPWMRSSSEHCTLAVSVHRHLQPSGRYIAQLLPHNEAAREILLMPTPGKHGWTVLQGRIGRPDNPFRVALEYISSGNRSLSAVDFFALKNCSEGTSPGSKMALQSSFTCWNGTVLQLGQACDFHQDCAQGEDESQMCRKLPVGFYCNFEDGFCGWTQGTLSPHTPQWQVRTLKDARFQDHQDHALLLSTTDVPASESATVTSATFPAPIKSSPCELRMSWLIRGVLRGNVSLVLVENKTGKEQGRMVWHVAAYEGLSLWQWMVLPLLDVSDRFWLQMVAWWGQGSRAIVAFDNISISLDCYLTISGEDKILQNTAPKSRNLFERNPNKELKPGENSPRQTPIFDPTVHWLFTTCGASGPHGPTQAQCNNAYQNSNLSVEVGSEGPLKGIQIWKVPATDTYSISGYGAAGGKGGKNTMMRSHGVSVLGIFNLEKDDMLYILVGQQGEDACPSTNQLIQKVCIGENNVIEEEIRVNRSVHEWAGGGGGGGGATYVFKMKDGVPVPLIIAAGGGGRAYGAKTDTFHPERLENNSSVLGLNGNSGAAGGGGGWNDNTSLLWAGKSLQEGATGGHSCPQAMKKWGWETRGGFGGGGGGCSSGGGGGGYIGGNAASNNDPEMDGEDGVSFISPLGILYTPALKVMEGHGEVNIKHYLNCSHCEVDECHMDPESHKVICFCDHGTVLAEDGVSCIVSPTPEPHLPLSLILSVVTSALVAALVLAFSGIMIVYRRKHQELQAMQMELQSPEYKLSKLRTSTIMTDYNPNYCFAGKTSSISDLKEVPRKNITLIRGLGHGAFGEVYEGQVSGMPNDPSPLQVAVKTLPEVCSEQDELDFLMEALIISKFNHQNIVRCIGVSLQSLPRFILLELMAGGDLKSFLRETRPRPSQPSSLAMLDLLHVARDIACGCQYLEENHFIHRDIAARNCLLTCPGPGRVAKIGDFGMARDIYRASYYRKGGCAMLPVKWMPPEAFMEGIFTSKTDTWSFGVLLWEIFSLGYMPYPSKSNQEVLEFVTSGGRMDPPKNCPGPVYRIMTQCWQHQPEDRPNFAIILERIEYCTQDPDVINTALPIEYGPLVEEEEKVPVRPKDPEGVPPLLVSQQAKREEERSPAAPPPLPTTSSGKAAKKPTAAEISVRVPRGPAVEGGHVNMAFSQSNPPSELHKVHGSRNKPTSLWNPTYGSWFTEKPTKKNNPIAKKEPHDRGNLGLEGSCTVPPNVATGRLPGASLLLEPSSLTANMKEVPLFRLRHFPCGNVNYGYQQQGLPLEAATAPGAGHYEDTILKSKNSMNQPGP
T7 sequence (P10721 26-976 V560G): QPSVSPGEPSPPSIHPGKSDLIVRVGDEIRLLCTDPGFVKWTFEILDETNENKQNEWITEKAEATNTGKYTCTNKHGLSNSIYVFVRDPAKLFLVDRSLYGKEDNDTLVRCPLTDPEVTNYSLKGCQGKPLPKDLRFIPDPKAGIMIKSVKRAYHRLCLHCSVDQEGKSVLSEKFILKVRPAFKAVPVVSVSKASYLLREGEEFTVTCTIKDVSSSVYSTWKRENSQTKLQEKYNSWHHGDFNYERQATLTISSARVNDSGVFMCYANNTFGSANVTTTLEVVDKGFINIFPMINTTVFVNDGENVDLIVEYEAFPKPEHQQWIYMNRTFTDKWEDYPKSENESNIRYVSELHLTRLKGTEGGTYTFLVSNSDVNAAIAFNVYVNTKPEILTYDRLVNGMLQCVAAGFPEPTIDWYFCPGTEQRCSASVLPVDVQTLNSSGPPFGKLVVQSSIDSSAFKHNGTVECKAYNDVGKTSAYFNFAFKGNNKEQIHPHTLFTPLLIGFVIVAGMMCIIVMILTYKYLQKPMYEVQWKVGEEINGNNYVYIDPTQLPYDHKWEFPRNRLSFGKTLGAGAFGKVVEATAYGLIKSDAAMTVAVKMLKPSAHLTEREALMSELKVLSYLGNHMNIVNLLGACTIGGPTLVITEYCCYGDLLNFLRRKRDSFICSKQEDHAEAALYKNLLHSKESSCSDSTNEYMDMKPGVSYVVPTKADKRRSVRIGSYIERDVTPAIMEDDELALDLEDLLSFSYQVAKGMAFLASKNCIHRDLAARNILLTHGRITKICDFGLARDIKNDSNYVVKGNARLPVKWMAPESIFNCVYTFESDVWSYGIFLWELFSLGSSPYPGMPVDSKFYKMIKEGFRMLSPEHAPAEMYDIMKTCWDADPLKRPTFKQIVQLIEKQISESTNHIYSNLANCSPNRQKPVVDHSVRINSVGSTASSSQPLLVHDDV
T4 sequence (Q96GD4 whole entry): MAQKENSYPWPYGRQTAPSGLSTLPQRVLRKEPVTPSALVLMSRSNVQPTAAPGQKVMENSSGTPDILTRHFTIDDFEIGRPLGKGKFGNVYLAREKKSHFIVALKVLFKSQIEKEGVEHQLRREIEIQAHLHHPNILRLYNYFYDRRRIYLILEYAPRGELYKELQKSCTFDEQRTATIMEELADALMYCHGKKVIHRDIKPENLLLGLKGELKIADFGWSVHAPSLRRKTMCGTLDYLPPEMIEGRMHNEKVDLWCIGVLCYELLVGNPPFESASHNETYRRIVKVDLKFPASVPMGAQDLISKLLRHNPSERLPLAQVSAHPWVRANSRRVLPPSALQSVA

Row | Compound | GI50 [1] [nM] | GI50 [2] [nM] | IC50 ([3]; read-out: TTK IC50 Range) [nM] | GI50 [4] [nM] | GI50 [5] [nM] | IC50 [6] [nM] | GI50 [7] [nM] | IC50 [3] [nM] | inhibition at 1 µM [8] [%] | inhibition at 1 µM [9] [%] | inhibition at 1 µM [10] [%] | inhibition at 1 µM [11] [%] | inhibition at 1 µM [12] [%] | inhibition at 1 µM [13] [%] | inhibition at 1 µM [14] [%] | inhibition at 1 µM [15] [%]
1 | CN1C2CCC1CC(Oc1ccc(-c3n[nH]c4ccc(C(=O)N[C@@H](c5ccsc5)C5CCCC5)cc34)cc1)C2 (stereo partly drawn) [Example A247, N-((R)-cyclopentyl(thiophen-3-yl)methyl)-3-(4-(((1R,3R,5S)-8-methyl-8-azabicyclo[3.2.1]octan-3-yl)oxy)phenyl)-1H-indazole-5-carboxamide] | 100 to 500 | 100 to 500 | < 100 | 100 to 500 | 100 to 500 | < 50 | 100 to 500 |  |  |  |  |  |  |  |  | 
2 | CC(C)[C@@H](NC(=O)c1ccc2[nH]nc(-c3ccc(OC4CCN(C)CC4)cc3)c2c1)c1ccccc1Cl [Example A274, (R)-N-(1-(2-chlorophenyl)-2-methylpropyl)-3-(4-((1-methylpiperidin-4-yl)oxy)phenyl)-1H-indazole-5-carboxamide] | 100 to 500 | 100 to 500 | < 100 | 100 to 500 | 100 to 500 | < 50 | > 500 |  |  |  |  |  |  |  |  | 
3 | CC(C)[C@H](NC(=O)c1ccc2[nH]nc(-c3ccc(OC4CC5CCC(C4)N5C)cc3)c2c1)c1ccccc1Cl (stereo partly drawn) [Example A287, N-((S)-1-(2-chlorophenyl)-2-methylpropyl)-3-(4-(((1R,3R,5S)-8-methyl-8-azabicyclo[3.2.1]octan-3-yl)oxy)phenyl)-1H-indazole-5-carboxamide] | 100 to 500 | < 100 | < 100 | < 100 | 100 to 500 | < 50 | < 100 |  |  |  |  |  |  |  |  | 
4 | CC(C)[C@@H](NC(=O)c1ccc2[nH]nc(-c3ccc(OC4CC5CCC(C4)N5C)cc3)c2c1)c1ccccc1Cl (stereo partly drawn) [Example A288, N-((R)-1-(2-chlorophenyl)-2-methylpropyl)-3-(4-(((1R,3R,5S)-8-methyl-8-azabicyclo[3.2.1]octan-3-yl)oxy)phenyl)-1H-indazole-5-carboxamide] | 100 to 500 | 100 to 500 | < 100 | < 100 | 100 to 500 | < 50 | 100 to 500 |  |  |  |  |  |  |  |  | 
5 | CC(C)CC(NC(=O)c1ccc2[nH]nc(-c3ccc(N4CCN(C5COC5)CC4)cc3)c2c1)c1ccccc1Cl (stereo not drawn) [Example A298, N-(1-(2-chlorophenyl)-3-methylbutyl)-3-(4-(4-(oxetan-3-yl)piperazin-1-yl)phenyl)-1H-indazole-5-carboxamide] | < 100 | < 100 | < 100 | < 100 | < 100 | < 50 | < 100 |  |  |  |  |  |  |  |  | 
6 | CC(C)C[C@H](NC(=O)c1ccc2[nH]nc(-c3ccc(N4CCN(C5COC5)CC4)cc3)c2c1)c1ccccc1Cl [Example A299, (S)-N-(1-(2-chlorophenyl)-3-methylbutyl)-3-(4-(4-(oxetan-3-yl)piperazin-1-yl)phenyl)-1H-indazole-5-carboxamide] | < 100 | < 100 | < 100 | < 100 | < 100 | < 50 | < 100 |  |  |  |  |  |  |  |  | 
7 | CC(C)[C@H](NC(=O)c1ccc2[nH]nc(-c3ccc(OC4CC5CCC(C4)N5CCO)cc3)c2c1)c1ccccc1Cl (stereo partly drawn) [Example A337, N-((S)-1-(2-chlorophenyl)-2-methylpropyl)-3-(4-(((1R,3R,5S)-8-(2-hydroxyethyl)-8-azabicyclo[3.2.1]octan-3-yl)oxy)phenyl)-1H-indazole-5-carboxamide] | < 100 | < 100 | < 100 | < 100 | < 100 | < 50 | < 100 |  |  |  |  |  |  |  |  | 
8 | CC(C)C[C@H](NC(=O)c1ccc2[nH]nc(-c3ccc(OC4CC5CCC(C4)N5C=O)cc3)c2c1)c1ccccn1 (stereo partly drawn) [Example A358, 3-(4-(((1R,3R,5S)-8-formyl-8-azabicyclo[3.2.1]octan-3-yl)oxy)phenyl)-N-((S)-3-methyl-1-(pyridin-2-yl)butyl)-1H-indazole-5-carboxamide] | < 100 | < 100 | < 100 | < 100 | < 100 | < 50 | < 100 |  |  |  |  |  |  |  |  | 
9 | O=C(N[C@@H](c1ccccn1)C1CC1)c1ccc2[nH]nc(-c3ccc(N4C5CCC4CC(O)C5)cc3)c2c1 (stereo partly drawn) [Example A363, N-((R)-cyclopropyl(pyridin-2-yl)methyl)-3-(4-((1R,3R,5S)-3-hydroxy-8-azabicyclo[3.2.1]octan-8-yl)phenyl)-1H-indazole-5-carboxamide] | < 100 | < 100 |  | < 100 | < 100 |  |  | < 100 | 90 | 75 | 6 | 80 | 48 | 23 | 90 | 53
